From patent US20260284240A1, “RADIOLABELED COMPOUND FOR USE IN A METHOD OF TREATING CARBONIC ANHYDRASE IX POSITIVE DISEASES” (DEBIOPHARM INTERNATIONAL S.A., priority 2023, published 2026)
Read-outs that look alike come from different tables or passages of the source. Starred links: 1 amine or outer side, 2 acyl side, 3 side chain; linkers in the order of their positions; H or OH if unused. Positions of bridges follow the written chain, without caps; N, C: chain ends. Non-standard residues stand in square brackets, D forms with d. Residues, ends and D or L forms follow the SMILES beside them. *: point of attachment. Phe(3-NHCO(CH2)3SO2NH2) = N[C@@H](Cc1cccc(NC(=O)CCCS(N)(=O)=O)c1)C(=O)O; DOTA = O=C(O)CN1CCN(CC(=O)O)CCN(CC(=O)*)CCN(CC(=O)O)CC1; mXylylene = c1cc(C[*:1])cc(C[*:2])c1; X1 = O=C(CN1CCN([*:1])CC1)[*:2]

Tests used:
human CAIX = target: T1, human CAIX (Homo sapiens, UniProt Q16790); experiment: Surface Plasmon Resonance (SPR) binding to captured human CAIX (Biacore T200); details: 25° C.
T1 construct: purchased Sino Biological 10107-H02H
Experimental: Surface Plasmon Resonance (SPR) studies were performed on a Biacore™ T200 using a ligand capture approach. Basically, anti-human Fc antibodies were immobilized on the surface of a sensor chip and CAIX was captured on the functionalized surface via its Fc Tag. Then, each compound was injected at increasing concentrations on the captured CAIX in order to measure the in real-time interaction of the compound to its target (i.e., the captured CAIX). The in real-time monitoring of the association and dissociation of the interaction gives access to the interaction kinetics parameters (i.e., the association and dissociation rate constants and the resulting affinity constants). […]
• For each measurement, the raw surface plasmon resonance response (RU) was plotted against time (s) as a sensorgram using the Biacore™ T200 Control Software. • Raw data were corrected by double referencing with subtraction of the signal of both the reference flow-cell and the blank cycle. • The association and dissociation rate constants (ka and kd, respectively), as well as the dissociation constant KD and dissociation half-life t½ were determined from the corrected sensorgrams by fitting the data to a 1:1 Langmuir binding model with the Biacore™ T200 evaluation software.

[1] = Biodistribution of In-111-labeled compounds by SPECT/CT in HT-29 tumor-bearing mice; assay type: in vivo, mouse; details: mouse
Experimental: (§1) The effect on tumor uptake of prior injection of gelofusine for kidney protection was investigated in mice bearing the SK-RC-52 tumor. Biodistribution was evaluated using in vivo SPECT/CT imaging. Prior to the in vivo study the compounds (ligands) were initially radiolabeled with In-111 and the stability of radiolabeled compounds was evaluated in buffer at three different timepoints.
(§2) The study was performed in female NMRI nude mice (approximately 6 weeks of age) from Janvier Labs, France, housed up to 5 mice per cage.
(§3) The column was washed with 2 mL water, and then the final product was eluted from the column in EtOH solution (50%) • The sample was formulated in PBS to the final concentration of 150 MBq/mL and 5 nmol/mL.
(§4) SK-RC-52 cells were cultured in RPMI 1640 with GlutaMax-I (Thermo Fisher Scientific #61870044) supplemented with 10% fetal bovine serum+1% penicillin/streptomycin, harvested, washed twice in RPMI 1640 and resuspended at 2×10^7 cells/mL in RPMI 1640. HT-29 cells were cultured in McCoy's 5a Medium Modified (Sigma #M9309). For inoculation of HT-29 cells, cells were harvested, washed twice in PBS and resuspended at 5×10^7 cells/mL in PBS. Cells were kept on ice until inoculation.
(§5) Animals were anaesthetized (isoflurane, 2-4% in ambient air supplemented with 100% O2) prior to tumor inoculation. The tumor cells (100 μL suspension of either SK-RC-52 cells (2×10^6 cells/animal) or HT-29 cells (5×10^6 cells/animal)) were subcutaneously inoculated in the right flank using a 1-mL syringe equipped with a 27G needle. Tumor growth and animal weight were measured twice per week. Tumor size was measured by caliper and the volume was estimated using the following formula: 0.52×(length×width^2). When tumor sizes reached 150-250 mm^3, animals were randomized into groups (n=3) of similar average tumor volume and body weight.
(§6) Animals were injected intravenously with In-111-labeled compounds (single bolus, 22.3-31.2 MBq, ~1 nmol ligand, injection volume: 100 μL) in the lateral tail vein using a 29G syringe.
(§7) CT was performed with helical scan, 300 ms exposure, reconstruction resolution of 250 μm. SPECT was performed with multi-pinhole scan and a 30 s frame time. For the quantification of the radioactivity uptake, regions of interests (ROIs) were drawn over the tumor, kidney, liver, and heart (estimate of blood) identified on the images. Uptake was expressed as percent of injected dose per gram tissue (% ID/g).

HT-29 tumor = experiment: as above; assay type: in vivo, mouse
Experimental: as §1, §2, §3, §4, §5, §6, §7

[2] = GLP extended single-dose i.v. toxicity study in beagle dogs; assay type: in vivo, dog
Experimental: The following parameters and endpoints were evaluated: mortality, clinical observations, body weights, food consumption, body temperature, local reactions, ophthalmology, clinical pathology parameters (hematology, coagulation, clinical chemistry, and urinalysis), cardiovascular and respiratory safety pharmacology endpoints along with FOB evaluation, organ weights, and macroscopic and microscopic examinations, and TK parameters. The animals from subset A (3 males and 3 females per group) were sampled for toxicokinetics (TK) at: pre-dose, 5 min, 15 min, 30 min, 1 h, 2 h, 3 h and 6 h. Blood samples were collected in K2EDTA tubes. Plasma was prepared by centrifugation (2500 g for 10 minutes, +4° C.) within 1 hour after collection, and then frozen within 1 hour after centrifugation and stored at −80° C. […] Chromatographic separation was achieved using a Waters Acquity UPLC system with a Waters Acquity HSS T3 C18 2.1×50 mm, 1.8 μm column. Chromatography was conducted at 50° C. at a flow rate of 0.7 mL/min using a mobile phase consisting of A: 1% formic acid in acetonitrile, and B: 1% formic acid in water, according to the following linear gradient: 0 to 0.1 min: 90% B; 0.1 to 4.1 min: from 90% B to 74% B; 4.1 to 4.2 min: from 74% B to 5% B; 4.2 to 4.6 min: 5% B; 4.6 to 4.7 min: from 5% B to 90% B; 4.7-5.1 min; 90% B. Detection was performed using a Sciex AP16600 TOF mass spectrometer. Toxicokinetic parameters were estimated from concentration-time data using Phoenix pharmacokinetic software (version 6.4, Certara L.P.). A non-compartmental approach consistent with the bolus intravenous injection was used for parameter estimation.

[3] = Functional observation battery (FOB), central nervous system, in dogs; assay type: in vivo; details: dog, FOB 1 hour after dosing
Excerpt: The test item treatment led to unaffected body weights, weight gains, and food intake. Likewise, no treatment-related abnormalities were reported during ophthalmic examinations, urinalysis, blood biochemistry, coagulation, and hematology investigations. There were no related organ weight changes and macroscopic and microscopic observations at early and late necropsies. Jacketed external telemetry was used to evaluate the potential cardiovascular and respiratory effects in the Subset B. Cardiorespiratory telemetry recordings were performed during the pre-test, Day 1 and 14. […] Arterial blood pressure parameters (systolic and diastolic blood pressure and mean arterial pressure) were measured continuously during consecutive 30-minute periods at pre-dose and for up to 6 h after dosing and over consecutive 60-minute periods up to 24 h after dosing. The respiratory rate was monitored on the pre-test, Day 1 and Day 14 at 0.5, 1, 2, 3, 4, 6, 8, 12, 16, 20, and 24 h. […] The potential effects on central nervous system parameters were evaluated under restrained and non-restrained conditions using a FOB in Subset A. Neurologic, autonomic, and behavioral investigations were performed in the pre-test, pre-dose, and 1 hour after dosing on Day 1.

CC(C)C[C@@H]1NC(=O)[C@H](Cc2cccc(NC(=O)CCCS(N)(=O)=O)c2)NC(=O)[C@H](CC(=O)O)NC(=O)[C@H]2CCCN2C(=O)[C@H](CCC(=O)O)NC(=O)[C@@H](NC(=O)[C@H](CCC(N)=O)NC(=O)CN2CCN(C(=O)CN3CCN(CC(=O)O)CCN(CC(=O)O)CCN(CC(=O)O)CC3)CC2)CSCc2cccc(c2)CSC[C@@H](C(N)=O)NC(=O)[C@H](CO)NC(=O)[C@H](Cc2c[nH]c3ccccc23)NC(=O)[C@H]([C@@H](C)O)NC1=O [DPI-4452, DOTA-PPAc-Gln-[Cys(3MeBn)-Glu-pro-Asp-Af3(Cpsu)-Leu-Thr-Trp-Ser-Cys]-NH2] ({DOTA}-[X1]QCE[dP]D[Phe(3-NHCO(CH2)3SO2NH2)]LTWSC-NH2; linker 3-12 via mXylylene)
t1/2 (dissociation half-life) (human CAIX): 1.65 h
tissue uptake ([1]; ht-29 tumor, HT-29, Mean ± SEM, N=3, read-out: Peak Tumor Uptake): 5.21 ± 1.22 %ID/g
tissue uptake ([1]; kidney, HT-29 mice, read-out: Peak Kidney uptake): 5.37 ± 1.45 %ID/g
% remaining tumor uptake at 24 h p.i. (HT-29 tumor; HT-29): 65.8 ± 3.8%
Time to peak uptake in tumor (HT-29 tumor; HT-29): 2 h
Blood uptake at 4 h p.i. (HT-29 tumor; HT-29 mice): 0.04 ± 0.002 % ID/g
Kidney uptake at 24 h p.i. (HT-29 tumor; HT-29 mice): 1.41 ± 0.11 % ID/g
Liver uptake at 4 h p.i. (HT-29 tumor; HT-29 mice): 0.12 ± 0.005 % ID/g
Human equivalent dose of the dog NOAEL ([2]; considering a 60 kg human): 13.3 mg
Clinical signs or local reactions ([2]; dog, single i.v. 16, 80, 400 μg/kg): no DPI-4452 treatment-related clinical signs or local reactions were observed
Tolerability ([2]; dog, single i.v. bolus up to 400 μg/kg): well tolerated
Central nervous system (neurologic, autonomic, behavioral domains) [3]: No effects were observed on the central nervous system
